EPA's CvTdb concentration-time database

Key:
Rat [1] = assay: concentration in liver after dosing; conditions: dosed: Perfluorohexanoic Acid, 80 mg/kg, oral
Rat [2] = assay: concentration in kidney after dosing; conditions: dosed: Perfluorohexanoic Acid, 80 mg/kg, oral
Rat [3] = assay: concentration in plasma after dosing
Rat [4] = assay: concentration in brain after dosing; conditions: dosed: Perfluorohexanoic Acid, 80 mg/kg, oral
rat [5] = assay: concentration in blood after dosing; negative times count back from the end of exposure; conditions: dosed: trichloroethylene, inhalation, duration: 4 hr

O=C(O)C(F)(F)C(F)(F)C(F)(F)C(F)(F)C(F)(F)F [Perfluorohexanoic Acid]
Conditions | concentration in brain, Rat [4] [ng/g] | concentration in kidney, Rat [2] [ng/g] | concentration in liver, Rat [1] [ng/g]
0.5 h, Female, Harlan Sprague Dawley | 1210 | 55900 | 32800
0.5 h, Male, Harlan Sprague Dawley | 2270 | 207000 | 105000
1 h, Female, Harlan Sprague Dawley | 1770 | 98400 | 42200
1 h, Male, Harlan Sprague Dawley | 2670 | 74100 | 87200
3 h, Female, Harlan Sprague Dawley | 703 | 45000 | 8510
3 h, Male, Harlan Sprague Dawley | 1170 | 44300 | 29600
3 h, Male, Harlan Sprague Dawley - this seems too small | 799 | 56500 | 36100
6 h, Female, Harlan Sprague Dawley | – | 14200 | 5010
6 h, Male, Harlan Sprague Dawley | 495 | 10900 | 9650
12 h, Female, Harlan Sprague Dawley | – | 663 | –
12 h, Male, Harlan Sprague Dawley | – | 2880 | 3140

concentration in plasma [ng/mL], Rat [3], dosed: Perfluorohexanoic Acid
Conditions | 40 mg/kg | 80 mg/kg
0.25 h, iv, Male, F344 | 21800 | –
0.25 h, oral, Male, Harlan Sprague Dawley | 27900 | 92000
0.5 h, iv, Female, Harlan Sprague-Dawley | 6320 | –
0.5 h, iv, Male, F344 | 26100 | –
0.5 h, oral, Male, Harlan Sprague Dawley | 64700 | 151000
0.75 h, iv, Female, Harlan Sprague-Dawley | 1990 | –
0.75 h, iv, Male, F344 | 12600 | –
0.75 h, oral, Male, Harlan Sprague Dawley | 55100 | 110000
1 h, iv, Female, Harlan Sprague-Dawley | 327 | –
1 h, iv, Male, F344 | 9120 | –
1 h, oral, Male, Harlan Sprague Dawley | 48300 | 127000
1.5 h, iv, Male, F344 | 7580 | –
3 h, iv, Male, F344 | 3740 | –
3 h, oral, Male, Harlan Sprague Dawley | 34400 | 60100
3 h, oral, Male, Harlan Sprague Dawley - this seems too small | – | 59500
5 min, iv, Male, F344 | 22900 | –
5 min, oral, Male, Harlan Sprague Dawley | 14600 | 59900
6 h, iv, Male, F344 | 3840 | –
6 h, oral, Male, Harlan Sprague Dawley | 18300 | 27700
9 h, oral, Male, Harlan Sprague Dawley | 3710 | 3460
12 h, iv, Male, F344 | 57.2 | –
12 h, oral, Male, Harlan Sprague Dawley | 2040 | –
24 h, iv, Male, F344 | 68.1 | –
24 h, oral, Male, Harlan Sprague Dawley | 222 | 627

Cc1ccc(C)c(OCCCC(C)(C)C(=O)O)c1 [Gemfibrozil]
concentration in plasma [ng/mL], Rat [3], dosed: Gemfibrozil, oral, Male, Sprague-Dawley
Conditions | 4.29 mg/kg | 50 mg/kg | 100 mg/kg
0.25 h | 250 | 17900 | 67400
0.5 h | 314 | 15700 | 34600
1 h | 147 | 5640 | 26200
2 h | 307 | 3310 | 8500
4 h | 566 | 8040 | 6870
5 min | 395 | 1580 | 13300
6 h | 401 | 9040 | 19600
10 h | 286 | 4860 | –
10 min | 2260 | 7420 | 40200
15 h | 137 | 1870 | –
18 h | 108 | 975 | 2190
24 h | 128 | 920 | 1800

ClC=C(Cl)Cl [trichloroethylene]
rat [5]
Conditions | concentration in blood [ng/mL]
-3.5 h, 600 ppm, female, F344, during exposure | 16800
-3.459 h, 600.4 ppm, female, F344, during exposure | 16200
-0.4732 h, 600.4 ppm, female, F344, during exposure | 29000
0.203 h, 50 ppm, male, Sprague Dawley | 936
0.2286 h, 50 ppm, male, Sprague Dawley | 807
0.2287 h, 50 ppm, male, Sprague Dawley | 1080
0.2341 h, 50 ppm, male, Sprague Dawley | 1130
0.2372 h, 600 ppm, female, F344 | 21800
0.2627 h, 600.4 ppm, female, F344 | 18800
0.4545 h, 50 ppm, male, Sprague Dawley | 1170
0.477 h, 50 ppm, male, Sprague Dawley | 624
0.4781 h, 50 ppm, male, Sprague Dawley | 461
0.4921 h, 50 ppm, male, Sprague Dawley | 758
0.4935 h, 600 ppm, female, F344 | 16100
0.5358 h, 600.4 ppm, female, F344 | 13400
0.9773 h, 600 ppm, female, F344 | 4980
0.9775 h, 50 ppm, male, Sprague Dawley | 548
0.9966 h, 50 ppm, male, Sprague Dawley | 412
1.025 h, 600.4 ppm, female, F344 | 8560
1.027 h, 50 ppm, male, Sprague Dawley | 319
1.739 h, 600 ppm, female, F344 | 2970
1.944 h, 50 ppm, male, Sprague Dawley | 181
1.987 h, 50 ppm, male, Sprague Dawley | 389
2.009 h, 50 ppm, male, Sprague Dawley | 301
2.054 h, 600.4 ppm, female, F344 | 3600
4.006 h, 50 ppm, male, Sprague Dawley | 217
4.049 h, 50 ppm, male, Sprague Dawley | 207
250 s, 600 ppm, female, F344 | 24700

rat [5], 50 ppm, male, Sprague Dawley, during exposure
Conditions | concentration in blood [ng/mL]
-313 s | 1440
-72 s | 1050
-67 s | 1720
-14 s | 2070
-3.578 h | 917
-3.528 h | 611
-3.504 h | 680
-3.419 h | 998
-3.27 h | 824
-3.051 h | 1330
-3.011 h | 745
-3.008 h | 1370
-2.984 h | 1290
-2.064 h | 1650
-2.027 h | 1110
-2.007 h | 1380
-1.985 h | 1950
-1.07 h | 1850
-1.031 h | 1920
-1.023 h | 1010
-1.012 h | 1700
